Reference: patent US20120283298A1, “METHODS FOR TREATING MEMORY IMPAIRMENT” (priority 2009, published 2012)
“Also recorded” adds a separate entry of the source.

Key:
SAMP8 mice [1] = assay: T-maze foot-shock avoidance acquisition after acute i.c.v. injection; assay type: in vivo, mouse
From the text: T-Maze Testing. The T-maze avoidance apparatus training and testing procedures have been previously described, and shown as an effective means to assess learning in SAMP8 mice (Flood and Morley, 1993; Farr et al., 2000). […] Octreotide is a primarily SSTR2 agonist, of the SRIF-1 family, serving as an additional control set. Forty-eight hours prior to testing, the mice were anesthetized with 2,2,2-tribromoethanol, placed in a stereotaxic instrument, and the scalp was deflected. A unilateral hole was drilled 0.5 mm anterior and 1.0 mm to the right of the bregma. […] This time frame is consistent with work by others showing somatostatin administration over 24 hrs decreased Aβ1-42 concentrations in the brain (Saito et al., 2005). […] Twenty-four hours following drug administration mice were evaluated using the T-maze test.
The T-maze consisted of a black plastic alley with a start box at one end and two goal boxes at the other. The start box was separated from the alley by a plastic guillotine door, which prevented movement down the alley until training began. An electrifiable stainless steel rod floor ran throughout the maze to deliver scrambled foot-shock. Mice were trained and tested between 07:00 and 15:00 h. Mice were not permitted to explore the maze prior to training. A block of training trials began when a mouse was placed into the start box. The guillotine door was raised and a buzzer sounded simultaneously; 5 s later foot-shock was applied. The goal box entered on the first trial was designated “incorrect” and the foot-shock was continued until the mouse entered the other goal box, which in all subsequent trials was designated as “correct” for the particular mouse. At the end of the acquisition trial, mice were decapitated and the brains flash frozen and stored at −80° C. for subsequent analyses.

Aβ42 = assay: ELISA analysis of Aβ42 in brain tissue ex vivo; parameters: species or system mouse
Experimental: Brain levels of Aβ42 were evaluated ex vivo, from flash frozen whole brain tissue following respective behavioral analyses, using ultra-centrifugation and solid phase extraction methods (Lanz and Schachter, 2006; Zupa-Fernandez et al., 2007), coupled with Enzyme-linked immunosorbent assay (ELISA) analysis. Half of the brain tissue was dedicated to Western blot examinations with remainder used for Aβ42 evaluation. Brain tissue was homogenized and incubated with 1 mL 50 mM NaCl, 0.4% DEA, pH=10, containing protease inhibitor (Roche, Indianapolis, Ind.). Samples were kept on ice for 20 min, followed by sonication at 30% for 30 sec. Samples were then incubated at room temperature (3 h) followed by centrifugation at 355,000×g for 30 min (4° C.). Supernatant was collected for extraction using Oasis HLB 3 cc columns (Waters, Milford, Mass.). Oasis columns were activated with 2 mL methanol (MeOH), followed by 2 mL diH2O. Brain homogenates were loaded in 1 mL increments. Samples were then washed sequentially with 1 mL volumes of 5% and 30% MeOH, then eluted with 1 mL 2% NH4OH in 90% MeOH. Eluted samples were collected and vacuum-centrifuged at 1400 rpm, 60° C. for 90-120 min. Once samples were dried completely, they were stored at −80° C. until assay. Samples were reconstituted and analyzed in duplicate according to ELISA assay directions (Beta-Mark Aβx-42, Covance, Dedham, Mass.) via luminometer (Lumistar Optima, BMG Labtech, Durham, N.C.). Aβ42 levels were calculated from linear-regression curve in pg/ml and then set to gram weight of brain tissue and normalized to respective controls.
Evaluation of Aβ. Brain levels of Aβ42 were evaluated ex vivo as described above in Example 1.

[2] = Body weight and behaviour during chronic i.p. dosing; assay type: in vivo, mouse; settings: SAMP8 mice, i.p. 0.2-200 μg once a day, 28 days
APPswe transgenic mice = assay: T-maze avoidance learning acquisition in APPswe transgenic mice after i.c.v. injection; assay type: in vivo, mouse; settings: 0.2 μg i.c.v.
From the text: The APPswe transgenic mouse carries a transgene coding for the 695-amino acid isoform of human Alzheimer A R precursor protein. (K. Hsiao et al., 274 Science 99-102, 1996). These mice express high concentrations of the mutant AR , with significant amyloid plaques, and display memory deficits. At 11-13 months of age they show a 14-fold increase in AR (1-42/43) over those at 2-8 months of age. Elevated AR levels are associated with the development of amyloid deposits in frontal, temporal and entorhinal cortex, hippocampus, presubiculum, and cerebellum, with some mice developing the signature cross pattern of deposits seen inhuman AD. […] Thus APPswe transgenic mice are also a good model for studying APP expression, amyloid plaque formation, neuronal decline, and memory loss associated with AD, and for studying drug candidates for treatment or prevention of AD. APPswe (Tg2576) mice, and non-transgenic siblings as controls, were obtained from Taconic (New York). All other materials and methods were as described for Example 1.
AAPswe transgenic mice were administered 0.2 μg of NNC 26-91001.c.v. after a 2 hour fasting period, followed by an additional hour of fasting after administration. Animals were tested using the T-maze model as described above in Example 1.

SAMP8 mice [3] = assay: T-maze acquisition and retention after chronic i.p. administration; assay type: in vivo, mouse; settings: for mean trials to first avoidance versus vehicle (learning): day 21
Experimental: T-Maze testing. The T-maze avoidance apparatus, training and testing procedures were as previously described in Example 1. […] Dosing range for i.p. administration (0.2-200 μg) was extrapolated from previous i.c.v. administration data as described in Example 1 above. Respective doses were given once a day over a period of 28 days. Learning and memory was assessed by the T-maze model. Learning evaluations were conducted at three weeks of treatment (day 21), while memory was assessed after one additional week of treatment (day 28). […] At the end of the evaluations mice were decapitated and the brains flash frozen and stored at −80° C. for subsequent analyses.

SAMP8 mice [4] = assay: Object-recognition task after i.c.v. injection; assay type: in vivo, mouse; settings: 0.2 μg i.c.v., 48 h after injection
Experimental: Object-recognition is a non-spatial memory recognition task, shown to be effective in SAMP8 mice (Bevins and Besheer, 2006; Fontan-Lozano et al., 2008). In this task, treated and control mice are measured as to the difference in time spent with a familiar (or remembered) object and a novel object. Mice received a single optimized dose (0.2 μg) determined from T-maze assessment, against vehicle control (0 μg). Dosing was performed 24 h prior to the initial training period and the recognition task was evaluated 24 h after training (i.e. 48 h after dosing). Mice were habituated to an empty apparatus (55×40×40 cm) for 5 min a day for 3 days prior to entry of the objects. On the day of training two similar objects were placed in the maze. Mice were placed in the maze and allowed to explore the objects for 5 min. In the 24-h retention test, one of the same objects is placed in the maze, as well as a new object in a new location. The difference in percent time spent exploring the new object over the familiar object was then determined. The criteria for exploration were based strictly on active exploration, where the mouse had both forelimbs within a circle of 1.5 cm around the object, with its head oriented toward it, or when touching it with its vibrissae. At the end of the retention trial, mice were decapitated and the brains flash frozen and stored at −80° C. for subsequent analyses.

SSTR4, APP, and NEP = assay: Western blot expression of SSTR4, APP and NEP in brain tissue ex vivo; parameters: species or system mouse
Experimental: Protein expression of brain tissues was evaluated ex vivo, from flash frozen whole brain tissue following respective behavioral analyses, by Western blot analyses for SSTR4, APP and NEP. Tissues were homogenized in RIPA buffer containing protease inhibitor (Roche) using a 1:10 ratio (0.5 g=5 ml), transferred into tubes and spun at 10,000×g for 20 min (4° C.). The supernatant was taken and a protein assay was used to determine the amount of protein present. Samples (100 μg) were separated using an electrophoretic field on Biorad (Bio-Rad, Hercules, Calif.) Tris HCl gels (10%) at 175 V for 70 min following heating at 95° C. for 5 min. GelCode Blue Stain (Pierce, Rockford, Ill.) was used to confirm appropriate protein loading. The proteins were then transferred to nitrocellulose membranes with 240 mA at for 45 min (4° C.). The membranes were then blocked using 5% nonfat milk-Tris-buffered saline (20 mM Tris base, 137 mM NaCl, pH 7.6) with 0.1% Tween-20 for 4 h and then incubated overnight at 4° C. with primary antibodies (1:1,000-1:2,000 dilution) in PBS-0.5% BSA. Antibodies shown effective: SSTR4 (Sigma-Aldrich), NEP (Millipore, Billerica, Mass.), and APP (Millipore). The membranes were then washed with 5% nonfat milk-Tris-buffered saline buffer before incubation with the respective secondary antibody at a 1:2,000 dilution (in PBS-0.5% BSA) for 60 min at room temperature. Blots were developed using the enhanced chemiluminescence method (ECL+; Amersham Life Science Products; Springfield, Ill.), and protein bands visualized on X-ray film. Optical densities were measured by densitometer (Biorad) and evaluated against respective controls. After each initial protein expression assessment, membranes were then stripped and re-probed with actin (Sigma-Aldrich).
Protein expression in brain tissues was evaluated ex vivo as described above in Example 1.

[5] = 0.2 μg i.c.v., after object-recognition task

Compound: CC(C)C[C@H](NP(=O)(O)O[C@@H]1O[C@@H](C)[C@H](O)[C@@H](O)[C@H]1O)C(=O)N[C@@H](Cc1c[nH]c2ccccc12)C(=O)O [phosphoramidon, reference compound]
- mean trials to first avoidance, vehicle versus vehicle combined with phosphoramidon (SAMP8 mice [1]; any dose of phosphoramidon (1 or 10 mM), i.c.v.): No significant change
- Aβ42 within vehicle groups (vehicle alone, +1 mM or +10 mM phosphoramidon) (Aβ42; i.c.v., post-T-maze): No change

Compound: S=C(NCCCc1c[nH]cn1)NCCCN(Cc1ccc(Cl)c(Cl)c1)c1ccc(Br)cn1 [NNC 26-9100]
- mean trials to first avoidance versus NNC 26-9100 alone (SAMP8 mice [1]; 0.2 μg i.c.v. co-administered with 1 mM phosphoramidon, p<0.05): significant increase in the number of mean trials to first avoidance
- trials to first avoidance versus NNC 26-9100+1 mM phosphoramidon (SAMP8 mice [1]; 0.2 μg i.c.v. co-administered with 10 mM phosphoramidon): significantly higher number of trials to first avoidance
- mean trials to first avoidance versus NNC 26-9100 alone (SAMP8 mice [1]; 0.2 μg i.c.v. co-administered with 10 mM phosphoramidon, p<0.01): significant increase in the number of mean trials to first avoidance
- learned avoidance (mean trials to first avoidance) compared to vehicle (SAMP8 mice [1]; SAMP8 mice, i.c.v., 0.2 μg, T-maze 24 h after injection): significant improvement; also recorded: significantly lower number of mean trials to first avoidance
- weight loss or abnormal behaviors [2]: no animals in the study exhibiting weight loss or abnormal behaviors
- avoidance learning acquisition (APPswe transgenic mice): effects in AAPswe transgenic mice similar to those obtained in SAMP8 mice
- mean trials to first avoidance versus vehicle (learning) (SAMP8 mice [3]; i.p. 20 μg daily): significantly lower number of mean trials to first avoidance
- mean trials to criterion versus vehicle (memory) (SAMP8 mice [3]; i.p. 20 μg daily, day 28, p<0.01): significantly lower mean trials to criterion
- mean trials to first avoidance versus vehicle (learning) (SAMP8 mice [3]; i.p. 200 μg daily): significantly lower number of mean trials to first avoidance
- mean trials to criterion versus vehicle (memory) (SAMP8 mice [3]; i.p. 200 μg daily, day 28, p<0.05): significantly lower mean trials to criterion
- enhancement in recognition memory (time with novel object) versus vehicle (SAMP8 mice [4]): approximately 2 fold
- SSTR4, APP, or NEP expression, NNC 26-9100 alone, co-administered phosphoramidon, and versus vehicle alone (SSTR4, APP, and NEP; 0.2 μg i.c.v., +1 mM or +10 mM phosphoramidon): No changes
- expression of SSTR4, APP, or NEP versus vehicle (SSTR4, APP, and NEP; [5]): No significant changes
- expression of SSTR4, APP, or NEP compared to vehicle (SSTR4, APP, and NEP; SAMP8 brain, i.c.v., 0.002-2.0 μg): no significant changes
- expression of SSTR4, APP, or NEP versus vehicle (SSTR4, APP, and NEP; chronic i.p., any dose (0.2-200 μg daily), 28 days): No significant changes
- Aβ42 versus NNC 26-9100 alone group (Aβ42; 0.2 μg i.c.v. + 10 mM phosphoramidon, post-T-maze): significant increase
- Aβ42 versus vehicle (Aβ42; [5]): no significant change
- decrease in Aβ42 compared to vehicle (Aβ42; SAMP8 brain, post-T-maze, i.c.v., all doses 0.002-2.0 μg): ~20%
- Aβ42 versus vehicle (Aβ42; chronic i.p. 20 μg daily, 28 days): significant decrease
- Aβ42 versus vehicle (Aβ42; chronic i.p., any other dose (0.2-200 μg range)): no significant changes

Compound: C[C@@H](O)[C@@H]1NC(=O)[C@H](CCCCN)NC(=O)[C@@H](Cc2c[nH]c3ccccc23)NC(=O)[C@H](Cc2ccccc2)NC(=O)[C@@H](NC(=O)[C@H](N)Cc2ccccc2)CSSC[C@@H](C(=O)N[C@H](CO)[C@@H](C)O)NC1=O [octreotide, reference compound]
- learned acquisition compared to vehicle (SAMP8 mice [1]; SAMP8 mice, i.c.v., any dose 0.002-2.0 μg): no significant effects

Compound: S=C(NCCCc1c[nH]cn1)N(CCc1c[nH]c2ccccc12)Cc1cccc(Cl)c1Cl [LIU 686-06A]
- mean trials to first avoidance versus vehicle (learning) (SAMP8 mice [3]; i.p. 0.2 μg daily): significantly lower number of mean trials to first avoidance
- mean trials to criterion versus vehicle (SAMP8 mice [3]; i.p. 20 μg daily, day 21 as printed): significantly lower number of mean trials to first criterion
